Several values for one entry are separate records, joined by “and”; a condition that tells them apart may be missing. Equal entries are not always repeated. Inconclusive results and toxic doses are left out. No stated cut-off is given here; in the data, active means T/C of 150% or more; inactive means T/C below 125%.
Tested on: L1210 leukemia ip in BDF1 mice, survival T/C
Test: NCI In Vivo Anticancer Drug Screen. Data for tumor model L1210 Leukemia (intraperitoneal) in B6D2F1 (BDF1) mice
Conditions: higher = longer survival
Summary of the method: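 Mice bearing the transplanted tumor received compound or vehicle. Survival of the treated group was divided by that of the vehicle-treated control group to give the ratio.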

[1] = endpoint: mean survival time, dose: 100.0 mg/kg/injection, schedule: Q01DX009 (ip), vehicle: Klucel (hydroxypropylcellulose) (HPC)
[2] = endpoint: mean survival time, dose: 100.0 mg/kg/injection, schedule: Q04DX003 (ip), vehicle: Klucel (hydroxypropylcellulose) (HPC)
[3] = endpoint: mean survival time, dose: 200.0 mg/kg/injection, schedule: Q01DX009 (ip), vehicle: Klucel (hydroxypropylcellulose) (HPC)
[4] = endpoint: mean survival time, dose: 200.0 mg/kg/injection, schedule: Q04DX003 (ip), vehicle: Klucel (hydroxypropylcellulose) (HPC)
[5] = endpoint: mean survival time, dose: 400.0 mg/kg/injection, schedule: Q01DX009 (ip), vehicle: Klucel (hydroxypropylcellulose) (HPC)
[6] = endpoint: mean survival time, dose: 400.0 mg/kg/injection, schedule: Q04DX003 (ip), vehicle: Klucel (hydroxypropylcellulose) (HPC)
[7] = endpoint: mean survival time, dose: 100.0 mg/kg/injection, schedule: Q01DX009 (ip), vehicle: saline with Tween-80
[8] = endpoint: mean survival time, dose: 100.0 mg/kg/injection, schedule: Q04DX002 (ip), vehicle: saline with Tween-80
[9] = endpoint: mean survival time, dose: 100.0 mg/kg/injection, schedule: Q04DX003 (ip), vehicle: saline with Tween-80
[10] = endpoint: mean survival time, dose: 200.0 mg/kg/injection, schedule: Q01DX009 (ip), vehicle: saline with Tween-80
[11] = endpoint: mean survival time, dose: 200.0 mg/kg/injection, schedule: Q04DX002 (ip), vehicle: saline with Tween-80
[12] = endpoint: mean survival time, dose: 200.0 mg/kg/injection, schedule: Q04DX003 (ip), vehicle: saline with Tween-80
[13] = endpoint: mean survival time, dose: 400.0 mg/kg/injection, schedule: Q01DX009 (ip), vehicle: saline with Tween-80
[14] = endpoint: mean survival time, dose: 100.0 mg/kg/injection, schedule: Q01DX001 (ip), vehicle: saline
[15] = endpoint: mean survival time, dose: 200.0 mg/kg/injection, schedule: Q01DX001 (ip), vehicle: saline

Measured: T/C

O=[N+]([O-])c1c(Cl)c(Cl)cc(Cl)c1Cl
inactive: [1] 102 % of control and 92 % of control | [2] 93 % of control and 97 % of control | [3] 106 % of control and 91 % of control | [4] 101 % of control | [5] 95 % of control and 92 % of control | [6] 95 % of control and 100 % of control

C=CCNC(=S)NCC=C
inactive: [1] 102 % of control | [2] 102 % of control | [3] 100 % of control | [4] 104 % of control | [5] 100 % of control | [6] 102 % of control

O=C(/C=C/c1ccccc1)NC(=S)Nc1cc(C(F)(F)F)ccc1Cl
inactive: endpoint: mean survival time, dose: 100.0 mg/kg/injection, schedule: Q01DX001 (ip), vehicle: saline with Tween-80 103 % of control | [7] 92 % of control and 86 % of control | [8] 98 % of control and 90 % of control | [9] 100 % of control | endpoint: mean survival time, dose: 200.0 mg/kg/injection, schedule: Q01DX001 (ip), vehicle: saline with Tween-80 95 % of control | [10] 92 % of control and 90 % of control | [11] 93 % of control and 114 % of control | [12] 94 % of control | endpoint: mean survival time, dose: 400.0 mg/kg/injection, schedule: Q01DX001 (ip), vehicle: saline with Tween-80 101 % of control | [13] 95 % of control and 89 % of control | endpoint: mean survival time, dose: 400.0 mg/kg/injection, schedule: Q04DX002 (ip), vehicle: saline with Tween-80 95 % of control and 101 % of control

CCC(=O)OC1CC2(C)C(=CC1=O)CCC1C2CCC2(C)C(OC(=O)CC)CCC12 (stereo not drawn)
inactive: endpoint: mean survival time, dose: 100.0 mg/kg/injection, schedule: Q01DX009 (ip), vehicle: saline 97 % of control | endpoint: mean survival time, dose: 200.0 mg/kg/injection, schedule: Q01DX009 (ip), vehicle: saline 96 % of control | endpoint: mean survival time, dose: 400.0 mg/kg/injection, schedule: Q01DX009 (ip), vehicle: saline 96 % of control

CCN(CC)c1ccc2[nH]c3c(C(N)=O)cc(=O)c(=O)c=3oc2c1
inactive: endpoint: median survival time, dose: 12.5 mg/kg/injection, schedule: Q01DX009 (ip), vehicle: saline with Tween-80 101 % of control | endpoint: median survival time, dose: 25.0 mg/kg/injection, schedule: Q01DX009 (ip), vehicle: saline with Tween-80 120 % of control | endpoint: median survival time, dose: 50.0 mg/kg/injection, schedule: Q01DX009 (ip), vehicle: saline with Tween-80 113 % of control | endpoint: median survival time, dose: 100.0 mg/kg/injection, schedule: Q01DX009 (ip), vehicle: saline with Tween-80 111 % of control | endpoint: median survival time, dose: 200.0 mg/kg/injection, schedule: Q01DX009 (ip), vehicle: saline with Tween-80 98 % of control

COc1ccc(C(=O)N/N=C/c2ccc(Cl)cc2Cl)cc1
inactive: [1] 102 % of control | [3] 94 % of control | [5] 91 % of control

NC(=S)N/N=C/c1ccc(C(F)(F)F)cn1
inactive: endpoint: mean survival time, dose: 13.3 mg/kg/injection, schedule: Q04DX003 (ip), vehicle: saline with Tween-80 108 % of control | endpoint: mean survival time, dose: 20.0 mg/kg/injection, schedule: Q04DX003 (ip), vehicle: saline with Tween-80 103 % of control | endpoint: mean survival time, dose: 30.0 mg/kg/injection, schedule: Q04DX003 (ip), vehicle: saline with Tween-80 113 % of control | endpoint: mean survival time, dose: 45.0 mg/kg/injection, schedule: Q04DX003 (ip), vehicle: saline with Tween-80 112 % of control | endpoint: mean survival time, dose: 67.5 mg/kg/injection, schedule: Q04DX003 (ip), vehicle: saline with Tween-80 111 % of control

CC1=C2CC[C@H]3[C@@H]4CC[C@H](O)[C@@]4(C)CC[C@@H]3[C@@]2(C)CCC1=O
inactive: endpoint: mean survival time, dose: 100.0 mg/kg/injection, schedule: Q01DX001 (sc), vehicle: steriod suspending solution 98 % of control | endpoint: mean survival time, dose: 200.0 mg/kg/injection, schedule: Q01DX001 (sc), vehicle: steriod suspending solution 98 % of control | endpoint: mean survival time, dose: 400.0 mg/kg/injection, schedule: Q01DX001 (sc), vehicle: steriod suspending solution 96 % of control | endpoint: mean survival time, dose: 800.0 mg/kg/injection, schedule: Q01DX001 (sc), vehicle: steriod suspending solution 96 % of control

COc1c(NC(=O)CC(C)=O)ccc2c(C)cc(=O)n(C)c12
inactive: endpoint: mean survival time, dose: 50.0 mg/kg/injection, schedule: Q01DX001 (ip), vehicle: Klucel (hydroxypropylcellulose) (HPC) 103 % of control | endpoint: mean survival time, dose: 100.0 mg/kg/injection, schedule: Q01DX001 (ip), vehicle: Klucel (hydroxypropylcellulose) (HPC) 99 % of control | endpoint: mean survival time, dose: 200.0 mg/kg/injection, schedule: Q01DX001 (ip), vehicle: Klucel (hydroxypropylcellulose) (HPC) 100 % of control

CC(C)(C)c1ccc(OC(=O)Nc2cccc(C(F)(F)F)c2)cc1
inactive: endpoint: mean survival time, dose: 100.0 mg/kg/injection, schedule: Q01DX009 (ip), vehicle: gum acacia 101 % of control | endpoint: mean survival time, dose: 200.0 mg/kg/injection, schedule: Q01DX009 (ip), vehicle: gum acacia 95 % of control | endpoint: mean survival time, dose: 400.0 mg/kg/injection, schedule: Q01DX009 (ip), vehicle: gum acacia 103 % of control

N#Cc1[nH]cnc1N
inactive: [14] 94 % of control | [15] 105 % of control | endpoint: mean survival time, dose: 400.0 mg/kg/injection, schedule: Q01DX001 (ip), vehicle: saline 97 % of control

CC(=O)c1ccc(S(=O)(=O)Cl)cc1
inactive: endpoint: mean survival time, dose: 50.0 mg/kg/injection, schedule: Q01DX001 (ip), vehicle: saline 113 % of control | [14] 90 % of control | [15] 104 % of control

CC(=O)NC1CCC(/C=C(\C#N)C2CCC(C)CC2)CC1 (stereo not drawn)
inactive: [8] 87 % of control | [11] 93 % of control

CCOC(=O)C(C)C(c1ccccc1)c1ccccc1 (stereo not drawn)
inactive: [9] 92 % of control | [12] 93 % of control | endpoint: mean survival time, dose: 400.0 mg/kg/injection, schedule: Q04DX003 (ip), vehicle: saline with Tween-80 96 % of control

CCCC1(CCC)NC(=O)N(CC(=O)OCC)C1=O
inactive: [7] 94 % of control | [10] 96 % of control | [13] 102 % of control

Cc1ccc([N+](=O)[O-])cc1
inactive: endpoint: mean survival time, dose: 100.0 mg/kg/injection, schedule: Q04DX002 (ip), vehicle: Klucel (hydroxypropylcellulose) (HPC) 103 % of control | endpoint: mean survival time, dose: 200.0 mg/kg/injection, schedule: Q04DX002 (ip), vehicle: Klucel (hydroxypropylcellulose) (HPC) 103 % of control | endpoint: mean survival time, dose: 400.0 mg/kg/injection, schedule: Q04DX002 (ip), vehicle: Klucel (hydroxypropylcellulose) (HPC) 95 % of control

COc1cccc(/C=N/N2CCN(/N=C/c3cccc(OC)c3OC)CC2)c1OC
inactive: endpoint: mean survival time, dose: 100.0 mg/kg/injection, schedule: Q01DX001 (ip), vehicle: carboxymethylcellulose (CMC) 94 % of control | endpoint: mean survival time, dose: 200.0 mg/kg/injection, schedule: Q01DX001 (ip), vehicle: carboxymethylcellulose (CMC) 98 % of control | endpoint: mean survival time, dose: 400.0 mg/kg/injection, schedule: Q01DX001 (ip), vehicle: carboxymethylcellulose (CMC) 100 % of control

COC(=O)CCC(=O)c1cccc2ccccc12
inactive: endpoint: mean survival time, dose: 100.0 mg/kg/injection, schedule: Q04DX003 (ip), vehicle: acetone 91 % of control | endpoint: mean survival time, dose: 200.0 mg/kg/injection, schedule: Q04DX003 (ip), vehicle: acetone 96 % of control | endpoint: mean survival time, dose: 400.0 mg/kg/injection, schedule: Q04DX003 (ip), vehicle: acetone 95 % of control

O=C(Nc1ccc(CCO)cc1)Nc1ccccc1F
inactive: [1] 97 % of control | [3] 88 % of control | [5] 111 % of control

NC(=S)N/N=C/c1cnccn1
inactive: endpoint: mean survival time, dose: 13.0 mg/kg/injection, schedule: Q03HX032 (ip), vehicle: saline with Tween-80 98 % of control | endpoint: mean survival time, dose: 20.0 mg/kg/injection, schedule: Q03HX032 (ip), vehicle: saline with Tween-80 101 % of control | endpoint: mean survival time, dose: 29.0 mg/kg/injection, schedule: Q03HX032 (ip), vehicle: saline with Tween-80 113 % of control | endpoint: mean survival time, dose: 44.0 mg/kg/injection, schedule: Q03HX032 (ip), vehicle: saline with Tween-80 115 % of control | [10] 86 % of control

CC1(C)Cc2cccc(C=C(C#N)C#N)c2O1
inactive: [2] 106 % of control | [4] 97 % of control | [6] 113 % of control
